The record followed here is patent US8163779B2, “Glucokinase activators” (Takeda San Diego, Inc., priority 2006, dated 2012).

Where a name gives a salt, the structure may show the parent alone. Some results are limits rather than exact numbers.

The target in the assay is T1, glucokinase (GK) (Homo sapiens, UniProt P35557).
T1 construct: I.D. No. 1 corresponds to residues 12-465 of glucokinase; made in house; host or cells: E. coli DH10b-T1r
T1 sequence (P35557 with tags, fused parts or gaps isoform P35557-2): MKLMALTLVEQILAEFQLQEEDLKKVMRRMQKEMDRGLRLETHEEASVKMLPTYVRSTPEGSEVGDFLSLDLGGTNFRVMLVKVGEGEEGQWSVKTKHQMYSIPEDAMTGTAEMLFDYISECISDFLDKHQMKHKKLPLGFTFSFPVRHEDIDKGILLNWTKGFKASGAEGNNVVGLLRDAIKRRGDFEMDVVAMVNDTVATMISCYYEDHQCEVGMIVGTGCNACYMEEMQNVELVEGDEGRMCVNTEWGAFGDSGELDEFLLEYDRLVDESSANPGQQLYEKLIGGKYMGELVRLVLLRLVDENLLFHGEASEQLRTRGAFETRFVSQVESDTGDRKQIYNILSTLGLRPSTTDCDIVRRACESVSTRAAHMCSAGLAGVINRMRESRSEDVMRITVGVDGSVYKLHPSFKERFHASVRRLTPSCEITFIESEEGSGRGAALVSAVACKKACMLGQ
Briefly: enzymatic glucokinase activity assay (ATP consumption, KinaseGlo luminescence). The assay is classed as biochemical. The following applies: recombinant GK residues 12-465; 5 μM ATP, 5 mM Glucose; Kact = concentration that displays 50% of the maximal increase in GK activity; read-out: pKact. From the text:
The activity of compounds as glucokinase activators may be assayed in vitro, in vivo or in a cell line. Provided below is an enzymatic glucokinase activity assay.
Purified glucokinase may be obtained as follows. […] SEQ.
The expression of recombinant glucokinase protein may be carried out by transformation and growth of DH10b-T1r E. coli cells incorporating the (pFLAG-CTC) plasmid in LB media. Protein expression can be induced in this system by the addition of IPTG to the culture medium.
Recombinant protein may be isolated from cellular extracts by passage over Sepharose Q Fast Flow resin (Pharmacia). This partially purified GK extract may then be further purified by a second passage over Poros HQ 10 (Applied Biosystems). The purity of GK may be determined on denaturing SDS-PAGE gel. Purified GK may then be concentrated to a final concentration of 20.0 mg/ml. After flash freezing in liquid nitrogen, the proteins can be stored at −78° C. in a buffer containing 25 mM TRIS-HCl pH 7.6, 50 mM NaCl, and 0.5 mM TCEP.
The activation properties of compounds for GK may be determined using a black 384-well-plate format under the following reaction conditions: 25 mM Hepes pH 7.2, 25 mM NaCl, 10 mM MgCl2, 0.01% Brij35, 1 mM DTT, 5 μM ATP, 5 mM Glucose 2% DMSO. The amount of ATP consumed may be determined quantitatively by addition of equal volume of luciferase reagent (luciferase+beetle luciferin—KinaseGlo Luminescent Kinase Assay kit from Promega). The luminescence intensity may be measured by using the Analyst HT from LJL Biosystems.
The reaction mixture may then be incubated at room temperature for 60 min, and quenched and developed by addition of 10 μL of luciferase reagent. Luminescence intensities of the resulting reaction mixtures may be measured after a 10 min incubation at room temperature. The luminescence intensity may be measured by using the Analyst HT from LJL Biosystems.
pKact values may be calculated by non-linear curve fitting of the compound concentrations and luminescence intensities to a standard inhibition/activation equation.
(Kinase-Glo measures the ATP left after a reaction by luminescence.)

With `CC(=O)Nc1ccc(=O)n(C(CC2CCOCC2)C(=O)Nc2ncc(Cl)s2)c1` (stereo not drawn) [Example 156, 2-(5-acetamido-2-oxopyridin-1(2H)-yl)-N-(5-chlorothiazol-2-yl)-3-(tetrahydro-2H-pyran-4-yl)propanamide], the EC50 was greater than 15.8 µM. Regarding `Cc1cc(S(=O)(=O)c2cccc(Cl)c2)cc(=O)n1[C@H](CC1CCOCC1)C(=O)Nc1ncc(F)s1` [Example 169, (R)-2-(4-(3-chlorophenylsulfonyl)-6-methyl-2-oxopyridin-1(2H)-yl)-N-(5-fluorothiazol-2-yl)-3-(tetrahydro-2H-pyran-4-yl)propanamide], the EC50 is greater than 15.8 µM.

Take `Cc1cc(S(=O)(=O)C2CCCC2)cc(=O)n1[C@H](CC1CCOCC1)C(=O)Nc1ncc(Cl)s1` [Example 37, (R)-N-(5-chlorothiazol-2-yl)-2-(4-(cyclopentylsulfonyl)-6-methyl-2-oxopyridin-1(2H)-yl)-3-(tetrahydro-2H-pyran-4-yl)propanamide]: the EC50 is 1.58 to 15.8 µM.

Turning to `Cc1cc(S(C)(=O)=O)cc(=O)n1C(CC1CCOCC1)C(=O)Nc1nccs1` (stereo not drawn) [Example 7, 2-(6-methyl-4-(methylsulfonyl)-2-oxopyridin-1(2H)-yl)-3-(tetrahydro-2H-pyran-4-yl)-N-(thiazol-2-yl)propanamide trifluoroacetic acid salt], the EC50 was greater than 15.8 µM. In the case of `O=C(Nc1ncc(F)s1)C(CC1CCOCC1)n1ccc(S(=O)(=O)c2ccccn2)cc1=O` (stereo not drawn) [Example 50, N-(5-fluorothiazol-2-yl)-2-(2-oxo-4-(pyridin-2-ylsulfonyl)pyridin-1(2H)-yl)-3-(tetrahydro-2H-pyran-4-yl)propanamide], the EC50 was less than 1.58 µM.

`Cc1cc(S(=O)(=O)C2CC2)cc(=O)n1C(CC1CCOCC1)C(=O)Nc1ncc(Cl)s1` (stereo not drawn) [Example 157, N-(5-chlorothiazol-2-yl)-2-(4-(cyclopropylsulfonyl)-6-methyl-2-oxopyridin-1(2H)-yl)-3-(tetrahydro-2H-pyran-4-yl)propanamide]: the EC50 is 1.58 to 15.8 µM. Regarding `Cc1occc1S(=O)(=O)c1cc(C)n([C@H](CC2CCOCC2)C(=O)Nc2ncc(Cl)s2)c(=O)c1` [Example 65, (R)-N-(5-chlorothiazol-2-yl)-2-(6-methyl-4-(2-methylfuran-3-ylsulfonyl)-2-oxopyridin-1(2H)-yl)-3-(tetrahydro-2H-pyran-4-yl)propanamide], the EC50 was greater than 15.8 µM.

Take `Cc1cc(S(=O)(=O)c2cccs2)cc(=O)n1C(CC1CCCCC1)C(=O)Nc1ncc(Cl)s1` (stereo not drawn) [Example 60, N-(5-chlorothiazol-2-yl)-3-cyclohexyl-2-(6-methyl-2-oxo-4-(thiophen-2-ylsulfonyl)pyridin-1(2H)-yl)propanamide]: the EC50 was less than 1.58 µM. Under `Cc1cc(S(=O)(=O)C2CCOCC2)cc(=O)n1C(CC1CCCC1)C(=O)Nc1ncc(F)s1` (stereo not drawn) [Example 175, 3-cyclopentyl-N-(5-fluorothiazol-2-yl)-2-(6-methyl-2-oxo-4-(tetrahydro-2H-pyran-4-ylsulfonyl)pyridin-1(2H)-yl)propanamide] stands 1.58 to 15.8 µM; under `Cc1cc(S(=O)(=O)c2cc(Cl)sc2Cl)cc(=O)n1C(CC1CCOCC1)C(=O)Nc1ncc(Cl)s1` (stereo not drawn) [Example 119, N-(5-chlorothiazol-2-yl)-2-(4-(2,5-dichlorothiophen-3-ylsulfonyl)-6-methyl-2-oxopyridin-1(2H)-yl)-3-(tetrahydro-2H-pyran-4-yl)propanamide], 1.58 to 15.8 µM; under `CN(C)c1ccc2nc(NC(=O)C(CC3CCOCC3)n3ccc(S(=O)(=O)C4CC4)cc3=O)sc2n1` (stereo not drawn) [Example 128, 2-(4-(cyclopropylsulfonyl)-2-oxopyridin-1(2H)-yl)-N-(5-(dimethylamino)thiazolo[5,4-b]pyridin-2-yl)-3-(tetrahydro-2H-pyran-4-yl)propanamide], less than 1.58 µM. `Cc1cc(S(=O)(=O)C2CC2)c(N)c(=O)n1[C@@H](CC1CCCC1)C(=O)Nc1ncc(F)s1` [Example 155, (S)-2-(3-amino-4-(cyclopropylsulfonyl)-6-methyl-2-oxopyridin-1(2H)-yl)-3-cyclopentyl-N-(5-fluorothiazol2-yl)propanamide]: the EC50 fell in the range of 1.58 to 15.8 µM. Under `CS(=O)(=O)c1ccn(C(Cc2c(Cl)cccc2Cl)C(=O)Nc2ncc(Cl)s2)c(=O)c1` (stereo not drawn) [Example 17, N-(5-chlorothiazol-2-yl)-3-(2,6-dichlorophenyl)-2-(4-(methylsulfonyl)-2-oxopyridin-1(2H)-yl)propanamide] stands greater than 15.8 µM.

With `COc1ccc2nc(NC(=O)[C@H](CC3CCOCC3)n3c(C)cc(S(=O)(=O)c4ccoc4C)cc3=O)sc2n1` [Example 62, (S)-N-(5-methoxythiazolo[5,4-b]pyridin-2-yl)-2-(6-methyl-4-(2-methylfuran-3-ylsulfonyl)-2-oxopyridin-1(2H)-yl)-3-(tetrahydro-2H-pyran-4-yl)propanamide], the EC50 lay in the range of 1.58 to 15.8 µM. Under `Cc1c(S(=O)(=O)C2CCCC2)cc(=O)n([C@H](CC2CCOCC2)C(=O)Nc2ncc(F)s2)c1C` [Example 153, (R)-2-(4-(cyclopentylsulfonyl)-5,6-dimethyl-2-oxopyridin-1(2H)-yl)-N-(5-fluorothiazol-2-yl)-3-(tetrahydro-2H-pyran-4-yl)propanamide] stands less than 1.58 µM; under `O=C(Nc1ncc(Cl)s1)[C@@H](CC1CCOCC1)n1ccc(S(=O)(=O)C2CCCC2)cc1=O` [Example 31, (R)-N-(5-chlorothiazol-2-yl)-2-(4-(cyclopentylsulfonyl)-2-oxopyridin-1(2H)-yl)-3-(tetrahydro-2H-pyran-4-yl)propanamide], greater than 15.8 µM.

As to `COc1ccc2nc(NC(=O)C(CC3CCOCC3)n3ccc(S(=O)(=O)C4CC4)cc3=O)sc2c1` (stereo not drawn) [Example 127, 2-(4-(cyclopropylsulfonyl)-2-oxopyridin-1(2H)-yl)-N-(6-methoxybenzo[d]thiazol-2-yl)-3-(tetrahydro-2H-pyran-4-yl)propanamide], the EC50 fell in the range of 1.58 to 15.8 µM. Under `Cc1cc(-c2cccc(F)c2)cc(=O)n1[C@@H](CC1CCCCC1)C(=O)Nc1nccs1` [Example 109, (S)-3-cyclohexyl-2-(4-(3-fluorophenyl)-6-methyl-2-oxopyridin-1(2H)-yl)-N-(thiazol-2-yl)propanamide] stands greater than 15.8 µM; under `CCS(=O)(=O)c1ccc(-c2cc(C)n([C@@H](CC3CCCCC3)C(=O)Nc3nccs3)c(=O)c2)cc1` [Example 102, (S)-3-cyclohexyl-2-(4-(4-(ethylsulfonyl)phenyl)-6-methyl-2-oxopyridin-1(2H)-yl)-N-(thiazol-2-yl)propanamide], greater than 15.8 µM.

As to `Cc1cc(S(C)(=O)=O)cc(=O)n1C(CC1CCCCC1)C(=O)Nc1nccs1` (stereo not drawn) [Example 3, 3-cyclohexyl-2-(6-methyl-4-(methylsulfonyl)-2-oxopyridin-1(2H)-yl)-N-(thiazol-2-yl)propanamide trifluoroacetic acid salt], the EC50 was 1.58 to 15.8 µM. For `CC#CCC(C(=O)Nc1ncc(Cl)s1)n1ccc(S(C)(=O)=O)cc1=O` (stereo not drawn) [Example 26, N-(5-chlorothiazol-2-yl)-2-(4-(methylsulfonyl)-2-oxopyridin-1(2H)-yl)hex-4-ynamide] the value was greater than 15.8 µM. For `Cc1cc(S(=O)(=O)C2CCCC2)cc(=O)n1C(CC1CCOCC1)C(=O)Nc1nccs1` (stereo not drawn) [Example 16, 2-(4-(cyclopentylsulfonyl)-6-methyl-2-oxopyridin-1(2H)-yl)-3-(tetrahydro-2H-pyran-4-yl)-N-(thiazol-2-yl)propanamide] the value was 1.58 to 15.8 µM. For `Cn1ccc(NC(=O)C(CC2CCOCC2)n2ccc(S(=O)(=O)C3CC3)cc2=O)n1` (stereo not drawn) [Example 66, 2-(4-(cyclopropylsulfonyl)-2-oxopyridin-1(2H)-yl)-N-(1-methyl-1H-pyrazol-3-yl)-3-(tetrahydro-2H-pyran-4-yl)propanamide] the value was greater than 15.8 µM; for `Cc1cc(S(=O)(=O)C2CCCC2)cc(=O)n1[C@@H](CC1CCOCC1)C(=O)Nc1ncc(Cl)s1` [Example 38, (S)-N-(5-chlorothiazol-2-yl)-2-(4-(cyclopentylsulfonyl)-6-methyl-2-oxopyridin-1(2H)-yl)-3-(tetrahydro-2H-pyran-4-yl)propanamide], less than 1.58 µM.
